Experimental data published in patent publication US20220194960A1, “WEE1 INHIBITOR AND PREPARATION AND USE THEREOF” (SHOUYAO HOLDINGS (BEIJING) CO., LTD., priority 2019, published 2022).
Read-outs that look alike come from different tables or passages of the source.

Legend:
[1] = biological target: T1, WEE1 kinase (Homo sapiens, UniProt P30291); experiment: WEE1 kinase binding assay (LanthaScreen EU); conditions: WEE1 kinase 20 nM, Kinase Tracer 178 100 nM, 23° C. for 60 min, read-out: WEEI (IC50)
T1 construct: purchased Carna bioscience
T1 sequence (P30291 whole entry): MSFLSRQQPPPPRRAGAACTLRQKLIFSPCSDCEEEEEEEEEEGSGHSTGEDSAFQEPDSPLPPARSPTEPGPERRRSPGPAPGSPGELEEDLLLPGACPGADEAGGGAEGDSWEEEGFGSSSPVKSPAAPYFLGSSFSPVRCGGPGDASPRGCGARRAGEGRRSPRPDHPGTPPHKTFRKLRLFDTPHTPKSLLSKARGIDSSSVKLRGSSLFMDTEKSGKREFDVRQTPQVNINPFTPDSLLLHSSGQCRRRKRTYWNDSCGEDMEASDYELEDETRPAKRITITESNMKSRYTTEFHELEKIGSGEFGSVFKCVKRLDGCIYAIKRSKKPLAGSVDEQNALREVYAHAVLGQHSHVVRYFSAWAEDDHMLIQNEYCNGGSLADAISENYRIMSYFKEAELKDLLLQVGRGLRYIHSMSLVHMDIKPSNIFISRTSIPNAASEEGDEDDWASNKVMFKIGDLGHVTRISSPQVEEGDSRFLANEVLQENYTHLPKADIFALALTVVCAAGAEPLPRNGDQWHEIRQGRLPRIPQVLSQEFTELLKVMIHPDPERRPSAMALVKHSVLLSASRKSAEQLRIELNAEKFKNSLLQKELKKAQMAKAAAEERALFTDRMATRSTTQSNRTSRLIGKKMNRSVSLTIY

[2] = Animal pharmacokinetic studies in rats; format: in vivo; conditions: male rats, 5 mg/kg single intragastric administration, plasma
Procedure: 3. Animal Pharmacokinetic Studies of Compounds:
Animal pharmacokinetic experiments were conducted with 3 healthy adult male rats from Beijing Vital River Laboratory Animal Technology Co., Ltd. The compound was suspended in a 20% solution of sulfobutyl ether-β-cyclodextrin (W/W/V) at a concentration of 1 mg/mL, The rats were subjected to 5 mg/kg suspension of the compound by single intragastric administration with a dosing volume of 5 mL/kg. Animals were fasted overnight prior to the experiment from 10 h before dosing to 4 h alter dosing. Blood was collected 0.25, 0.5, 1, 2, 4, 6, 8 and 24 h after administration. Animals were lightly anesthetized with isoflurane, and approximately 0.4 ml, of whole blood was collected from the orbital venous plexus with a glass blood collection tube, placed in a heparin anticoagulant tube, centrifuged at 4200 rpm for 5 min at 4° C., plasma transferred to the centrifuge tube, and stored at −80° C. until analysis. Test compounds extracted from rat plasma using acetonitrile protein precipitation and internal standard (Warfarin or Propranolol) were used for Plasma sample analysis, and the extracts were analyzed by LC/MS/MS. The measured plasma concentration-time data for individual animals were analyzed using non-compartmental model of WinNonlin (version 5.2.1; Pharsight) software to obtain the following pharmacokinetic parameters: maximum (peak) plasma drug concentration Cmax; a peak time Tmax; half-life T1/2 and the area under the plasma concentration-time curve front time 0 extrapolated to infinite time AUC0-inf.

IC50 [1] [nM]	AUC(0-inf) [2] [µg·h/mL]	Cmax [2] [µg/mL]	T1/2 [2] [h]	Tmax [2] [h]	half-life ([2]; rat, po) [h]	AUC(0-inf) ([2]; rat, po, read-out: AUC0-inf) [µg·h/mL]	Cmax ([2]; rat, po, read-out: Cmax) [µg/mL]	Tmax ([2]; rat, po, read-out: Tmax) [h]	SMILES
1.03	4.066	0.163	19.2	4.8					CCCc1cc2cnc(Nc3ccc(N4CCC5(CCN(C)CC5)CC4)cc3)nc2n1-c1cccc(C(C)(C)O)n1 [Example 124, 2-(6-(6-propyl-2-((4-(9-methyl-3,9-diazaspiro[5.5]undecan-3-yl)phenyl)amino)-7H-pyrrolo[2,3-d]pyrimidin-7-yl)pyridin-2-yl)propan-2-ol]
					9.2	1.1	0.064	5.4	Cc1cc2cnc(Nc3ccc(N4CCC(N5CCN(C)CC5)CC4)cc3)nc2n1-c1cccc(C(C)(C)O)n1 [Example 148, 2-(6-(6-methyl-2-((4-(4-(4-methylpiperazin-1-yl)piperidin-1-yl)phenyl)amino)-7H-pyrrolo[2,3-d]pyrimidin-7-yl)pyridin-2-yl)propan-2-ol]
